Among the data in PubChem BioAssay (NCI) are GI50 and TGI values, retold here.

Several values for one entry are separate records, joined by “and”; a condition that tells them apart may be missing. Equal values may be shown once.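 Briefly, cells in 96-well plates were exposed to five compound concentrations for 48 h, and endpoints were estimated by linear interpolation. Abbreviation: GI50, concentration required for 50% inhibition of growth. TGI: total growth inhibition.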 A value given as a limit tells only on which side of the number the result lay.

Among the test systems are NCI-H23 lung; SNB-75 CNS; BT-549 breast; HS 578T breast; MDA-MB-435; MOLT-4 leukemia; CCRF-CEM leukemia; M19-MEL melanoma; DMS 114 small cell lung; DLD-1 colon; HOP-18 NSCLC.
Experiment in all cases: inhibition of tumour cell growth, NCI panel, 48 h

Take `Cc1ccc(S(=O)(=O)Nc2cccc3[nH]c(C(F)(F)F)nc23)cc1`: the GI50 was 1660 nM in the experiment on NCI-H23 lung; 314 nM in the experiment with SNB-75 CNS; 620 nM with BT-549 breast; 887 nM in the experiment on HS 578T breast; 204 nM in the experiment with MDA-MB-435; 605 nM in the experiment with MOLT-4 leukemia. Moreover, the GI50 with CCRF-CEM leukemia was 1160 nM. The TGI is 41.5 µM in the experiment on NCI-H23 lung; 2.45 µM in the experiment with SNB-75 CNS; 52 µM in the experiment on BT-549 breast; 38.2 µM in the experiment on HS 578T breast; above 100 µM with MDA-MB-435; 29 µM in the experiment with MOLT-4 leukemia. In the experiment on CCRF-CEM leukemia, the TGI was above 100 µM.
As for `CC(C)(O)CC(=O)NCCn1ccc2ncnc(Nc3ccc(Oc4cccc(C(F)(F)F)c4)c(Cl)c3)c21`, the GI50 with NCI-H23 lung was 3760 nM; with SNB-75 CNS, 4720 nM; in the experiment with BT-549 breast, 5520 nM; with HS 578T breast it was 4600 nM; in the experiment on MDA-MB-435 it was 3980 nM; in the experiment with MOLT-4 leukemia it was 3540 nM. Also, the GI50 in the experiment on CCRF-CEM leukemia is 3260 nM. Moreover, the TGI in the experiment with NCI-H23 lung, with SNB-75 CNS, in the experiment on BT-549 breast, in the experiment on HS 578T breast, in the experiment with MDA-MB-435 and with MOLT-4 leukemia was above 10 µM each time. Also, in the experiment on CCRF-CEM leukemia, the TGI was above 10 µM.
Turning to `CN(C)c1ccc2c(c1)OC(N)=C(C#N)C2c1ccc2c(c1)CCO2` (configuration not stated), the GI50 in the experiment on NCI-H23 lung is 362 nM; in the experiment with SNB-75 CNS, 81.2 nM; in the experiment on BT-549 breast it was 38.5 nM; with HS 578T breast it was 235 nM; in the experiment on MDA-MB-435, below 15.6 nM; with MOLT-4 leukemia, 300 nM. Moreover, the GI50 in the experiment on CCRF-CEM leukemia is 216 nM. Besides, the TGI in the experiment on NCI-H23 lung is above 100 µM; in the experiment on SNB-75 CNS, above 49.4 µM; with BT-549 breast, 12.4 µM; in the experiment on HS 578T breast, above 100 µM; in the experiment on MDA-MB-435, 0.095 µM; with MOLT-4 leukemia it was 32.4 µM. Also, the TGI in the experiment on CCRF-CEM leukemia was above 52.6 µM.
Consider `Cc1ccccc1NC(=O)C(=O)CC(=O)c1c(C)n([O-])c2ccccc2[n+]1=O`, for which the TGI in the experiment with NCI-H23 lung, in the experiment on SNB-75 CNS, with M19-MEL melanoma, in the experiment on DMS 114 small cell lung, in the experiment on DLD-1 colon and with HOP-18 NSCLC was above 100 µM throughout.
In the case of `C[CH2][Sn]([CH2]C)([O]C(=O)C(OC(C)=O)c1ccccc1)[O]C(=O)C(OC(C)=O)c1ccccc1` (configuration not stated), the GI50 was 15500 nM in the experiment with NCI-H23 lung; 31900 nM with SNB-75 CNS; 16100 nM with BT-549 breast; 40000 nM in the experiment on HS 578T breast; above 100000 nM with MDA-MB-435; 17200 nM in the experiment with MOLT-4 leukemia. In addition, the GI50 with CCRF-CEM leukemia was 1930 nM. Further, the TGI was 29.8 µM in the experiment with NCI-H23 lung; 99.5 µM with SNB-75 CNS; 29.7 µM in the experiment with BT-549 breast; above 100 µM with HS 578T breast; above 100 µM in the experiment with MDA-MB-435; 60.9 µM with MOLT-4 leukemia. The same compound gave a TGI in the experiment on CCRF-CEM leukemia of 6.15 µM.
With `CCCCN(CCCC)c1ccc(C(=N)c2ccc(N(CCCC)CCCC)cc2)cc1`, the GI50 was 292 nM in the experiment with NCI-H23 lung; 746 nM in the experiment with SNB-75 CNS; 1420 nM in the experiment on BT-549 breast; 539 nM in the experiment on HS 578T breast; 642 nM in the experiment on MDA-MB-435; 604 nM with MOLT-4 leukemia. For the same compound, in the experiment with CCRF-CEM leukemia, the GI50 is 557 nM. The TGI in the experiment with NCI-H23 lung was 1.06 µM; in the experiment with SNB-75 CNS, 2.14 µM; in the experiment with BT-549 breast, 2.89 µM; in the experiment with HS 578T breast it was 1.58 µM; in the experiment on MDA-MB-435, 2.21 µM; in the experiment on MOLT-4 leukemia, 2.14 µM. This compound registered a TGI in the experiment with CCRF-CEM leukemia of 2.27 µM.
Take `CCOc1ccccc1N=Nc1c(C)[nH]n(-c2nc(-c3ccccc3)cs2)c1=O`: the GI50 in the experiment with NCI-H23 lung is above 74100 nM; in the experiment with SNB-75 CNS, 14300 nM; in the experiment on BT-549 breast, 29200 nM; with HS 578T breast it was 29200 nM; in the experiment with MDA-MB-435 it was above 100000 nM; in the experiment on MOLT-4 leukemia, above 100000 nM. In the experiment on CCRF-CEM leukemia, the GI50 was above 100000 nM. Moreover, the TGI in the experiment with NCI-H23 lung was above 100 µM; in the experiment with SNB-75 CNS, 48.3 µM; with BT-549 breast it was above 100 µM; with HS 578T breast, above 95.1 µM; in the experiment on MDA-MB-435 it was above 100 µM; with MOLT-4 leukemia, above 100 µM. In the experiment on CCRF-CEM leukemia, the TGI is above 100 µM.
For `CS[C@]12C(=O)C[C@@]3(C)[C@@H](CC[C@]3(O)C(=O)CO)[C@@H]1CCC1=CC(=O)CC[C@@]12C`, the TGI in the experiment with NCI-H23 lung, with SNB-75 CNS, in the experiment on BT-549 breast, in the experiment with HS 578T breast, with MDA-MB-435 and in the experiment on MOLT-4 leukemia was above 100 µM each time. The same compound yielded a TGI in the experiment on CCRF-CEM leukemia above 100 µM.
On to `CC1(C)[C@@H](OC(N)=O)[C@H]2O[C@H]2[C@]2(CO)[C@H]3CC[C@]4(C)[C@@H](c5ccc(=O)oc5)[C@@H](Cl)C[C@]4(O)C3=CC[C@@H]12`, for which the GI50 with NCI-H23 lung was 5.52 nM; with SNB-75 CNS, 4.67 nM; in the experiment with BT-549 breast, 6.95 nM; in the experiment with HS 578T breast, 5.24 nM; with MDA-MB-435, 10.1 nM; in the experiment on MOLT-4 leukemia, 5.19 nM. For the same compound, the GI50 with CCRF-CEM leukemia is 7.68 nM. Besides, the TGI in the experiment with NCI-H23 lung came to 0.0152 µM; in the experiment on SNB-75 CNS it was 0.0138 µM; with BT-549 breast, 0.0257 µM; with HS 578T breast it was 0.0207 µM; in the experiment with MDA-MB-435, 0.0386 µM; in the experiment with MOLT-4 leukemia it was 0.0144 µM. The same compound registered a TGI in the experiment with CCRF-CEM leukemia of 0.0264 µM.
As for `C=C1C(=O)OC2/C=C(/C)C(OC(C)=O)CC(O)/C(C)=C\C(OC(=O)/C(C)=C\C)C12` (configuration not stated), the TGI in the experiment with NCI-H23 lung, with SNB-75 CNS, in the experiment with BT-549 breast, with HS 578T breast, with MDA-MB-435 and with MOLT-4 leukemia was above 100 µM each time. The compound also yielded a TGI with CCRF-CEM leukemia above 100 µM.
Consider `NC(=S)N/N=C/c1ncccc1N`, for which the TGI in the experiment on NCI-H23 lung was 6.83 µM and > 3.07 µM; in the experiment on SNB-75 CNS it was 25.3 µM and > 8.46 µM; with BT-549 breast, above 100 µM; in the experiment on HS 578T breast it was above 100 µM; in the experiment on MDA-MB-435, above 100 µM; with MOLT-4 leukemia it was 44.8 µM and > 10 µM. Further, the TGI in the experiment with CCRF-CEM leukemia was above 58.4 µM. The GI50 is 674 nM with SNB-75 CNS; 2960 nM in the experiment with BT-549 breast; 37500 nM in the experiment on HS 578T breast; 5170 nM in the experiment with MDA-MB-435; 1040 nM in the experiment on MOLT-4 leukemia; 1140 nM in the experiment on CCRF-CEM leukemia.
`COc1ccc(C(C#N)Cc2cc(OC)c(OC)c(OC)c2)cc1` (configuration not stated): the TGI is above 100 µM with M19-MEL melanoma; 63.4 µM in the experiment with DMS 114 small cell lung; above 100 µM with MOLT-4 leukemia; above 100 µM with DLD-1 colon; above 100 µM with CCRF-CEM leukemia; above 100 µM in the experiment on HOP-18 NSCLC.
